We go through four molecules from publication PMC8134483 (Scientific Reports, 2021).

Like-named read-outs stand apart in the source and are kept apart here.

Experiment [1] has as its target T1, hCB2R (Homo sapiens, UniProt P34972).
T1 construct: host or cells: CHO-K1 (PathHunter)
Nature of the experiment: [^3H]CP55,940 competition (radioligand displacement) binding to CB2R. The settings on record: for CB2R [^3H]CP55,940 Emin: bottom of the concentration–response curve, mean ± SEM.

In experiment [2] the target is T2, hCB1R (Homo sapiens, UniProt P21554).
T2 construct: expressed in transfected cells; host or cells: CHO-K1
Nature of the experiment: biochemical. It counts as binding.

A further experiment deals with male C57Bl/6 mice. The experiment is described as follows: Elevated plus maze (EPM). It counts as in vivo. The conditions noted are these: 1.0 mg/kg i.p., 30 min after treatment, 5 min trial; for EPM total arm entries: vs vehicle. The protocol: Adult male C57BL/6 mice aged 6–10 weeks (mean weight 24 ± 0.5 g) were purchased from Charles River Labs (Senneville, QC). Animals were group housed (three per cage) with ad libitum access to food, water, and environmental enrichment and maintained on a 12 h light/dark cycle. Mice were randomly assigned to receive i.p. injections of vehicle (1:1:18 ethanol:emulphor:saline) or 0.1–10 mg/kg SCRA (n ≥ 4 per group). All protocols have been described previously and were in accordance with the guidelines detailed by the Canadian Council on Animal Care and approved by the Animal Research Ethics Board and the Scientific Merit Review Committee for Animal Behaviour at the University of Saskatchewan. The following steps were taken to ensure our study was in keeping with the ARRIVE guidelines: (1) power analyses were conducted to determine the minimum number of animals required for the study; (2) animals were purchased—rather than bred—to limit animal waste; and (3) all assessments of animal behaviour were made by individuals blinded to the treatment group,[57].
EPM was conducted according to methods adapted from Marks et al.. The EPM was built from a plywood base painted blue with blue corrugated plastic floor and walls. The floor of the maze was composed of perpendicular interlocking arms (110 cm long × 10 cm wide) with two arms having 45 cm walls (closed arms) and two arms having no walls and a 0.5 cm edge (open arms), all elevated 45 cm from the ground. Trials began with the mouse in the central zone facing an open arm. Trials lasted 5 min and began 30 min after SCRA treatment. An arm entry was considered to be all four limbs leaving the central zone. Arm entries and the percent time spent in open versus closed arms were recorded by an observer blinded to the treatment group. Less time in the open arms and more time in the closed arms was used as a model of anxiogenic behaviour.

The target of experiment [3] is T1, hCB2R. The experiment is described as follows: PathHunter βarrestin2 recruitment, CB2R. The conditions noted are these: for βarrestin2 recruitment to CB2R, activity in words: relative to CP55,940. It counts as cell-based. (In general: Arrestin recruitment assays detect the binding of arrestin to an activated receptor.)
Experiment [4] concerns the target T2, hCB1R. The experiment is described as follows: cell-based. It counts as cell-based. The conditions noted are these: for EC50: CHO hCB1R, 10 µM FSK, 90 min, value with 95% CI, read-out: CB1R cAMP Inhibition EC50; for Emax: read-out: CB1R cAMP Inhibition Emax.
Experiment [5] addresses T2, hCB1R. Nature of the experiment: cell-based. It counts as cell-based. The conditions noted are these: for EC50: CHO hCB1R, 90 min, value with 95% CI, read-out: CB1R βarrestin2 recruitment EC50; for Emax: read-out: CB1R βarrestin2 recruitment Emax; for βarrestin2 recruitment to CB1R, activity in words: relative to CP55940.
Experiment [6] deals with T1, hCB2R. The experiment is described as follows: HitHunter inhibition of FSK-stimulated cAMP, CB2R. The experiment is classed as cell-based.
Experiment [7] concerns the target T1, hCB2R. Nature of the experiment: CB2R bias analysis (operational model, cAMP inhibition vs βarrestin2). The conditions noted are these: CP55,940 as reference agonist; >0 cAMP bias, <0 βarrestin2 bias. The experiment is classed as cell-based. The protocol:
Estimates of Ki, EC50, Emin, and Emax were determined using non-linear regression with variable slope (four parameters) (GraphPad, Prism, v. 8.0). […] One-way analysis of variance (ANOVA), followed by Tukey’s post-hoc test, was used for statistical analyses (p < 0.05 determined to be significant); and Bartlett’s test was used to confirm homogeneity of variance (GraphPad).

[8] abbreviates: bottom of the concentration–response curve, mean ± SEM.

T2 sequence (P21554 whole entry): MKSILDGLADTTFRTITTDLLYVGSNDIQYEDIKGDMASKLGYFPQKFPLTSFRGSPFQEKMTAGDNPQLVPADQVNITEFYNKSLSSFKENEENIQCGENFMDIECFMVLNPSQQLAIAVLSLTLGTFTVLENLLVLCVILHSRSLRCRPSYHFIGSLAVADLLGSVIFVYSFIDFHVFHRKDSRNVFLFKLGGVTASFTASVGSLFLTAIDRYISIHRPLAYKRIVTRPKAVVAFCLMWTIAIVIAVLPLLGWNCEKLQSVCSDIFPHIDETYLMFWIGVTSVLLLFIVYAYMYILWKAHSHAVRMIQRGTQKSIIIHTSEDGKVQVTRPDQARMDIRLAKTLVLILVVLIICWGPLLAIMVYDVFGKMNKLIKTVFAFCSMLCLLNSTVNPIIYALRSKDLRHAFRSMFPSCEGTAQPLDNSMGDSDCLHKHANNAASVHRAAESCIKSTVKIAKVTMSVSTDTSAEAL
T1 sequence (P34972 whole entry): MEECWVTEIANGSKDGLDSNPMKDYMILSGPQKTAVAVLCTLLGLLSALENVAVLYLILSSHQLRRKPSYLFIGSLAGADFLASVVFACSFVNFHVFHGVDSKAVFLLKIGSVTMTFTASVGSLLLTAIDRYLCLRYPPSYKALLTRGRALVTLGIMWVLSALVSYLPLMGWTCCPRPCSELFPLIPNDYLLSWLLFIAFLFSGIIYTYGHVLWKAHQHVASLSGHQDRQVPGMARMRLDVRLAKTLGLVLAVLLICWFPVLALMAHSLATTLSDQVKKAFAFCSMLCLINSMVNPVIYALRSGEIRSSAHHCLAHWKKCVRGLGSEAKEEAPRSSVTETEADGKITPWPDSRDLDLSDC

For the molecule `CCCCCCC(C)(C)c1ccc([C@@H]2C[C@H](O)CC[C@H]2CCCO)c(O)c1` [CP55,940, reference compound], on hCB2R [1], the “CB2R [^3H]CP55,940 Emin” value turned out to be 0.0 ± 5.6%. On hCB1R [2], the “CB1R [^3H]CP55,940 Emin” value was determined as 0.0 ± 5.2%. Also, in the experiment with male C57Bl/6 mice, the “EPM time in the central quadrant” value is reported as “majority of their time in the central quadrant immobile” and the “EPM total arm entries” value is “reduced total arm entries”.
The term EC50 denotes the concentration at which the effect is half-maximal. In general, Emax refers to the greatest response seen or fitted, relative to the assay's reference. As a reminder, the Ki is the equilibrium dissociation constant of an inhibitor or competing ligand from its target. Turning to `Cc1ccc(C(=O)c2cn(CCCCCCl)c3ccccc23)c2ccccc12` [MAM2201 N-(5-chloropentyl) analog], on hCB2R [3], the EC50 is more than 10000 nM; the Emax turned out to be 5.5 ± 1.9%; the “βarrestin2 recruitment to CB2R, activity in words” value (from here on “βarrestin2 recruitment to CB2R”) is “inactive in βarrestin2”. The “βarrestin2 recruitment to CB2R” value at hCB2R [3] (listed as MAM-2201 N-(5-chloropentyl) analog) is reported as “Inactive at βarrestin2”. Further, at hCB2R [1], the “Affinity for CB2R compared with CP55,940, in words” value is listed as “significantly less affinity”; the Ki is more than 10000 nM; the “CB2R [^3H]CP55,940 Emin” value is listed as 40 ± 3.8 %. Besides, on hCB1R [4] (CB1R vs CB2R), the “CB1R versus CB2R selectivity, cAMP inhibition potency” value is “more potent at CB1R relative to CB2R”. Also, on hCB1R [4], the concentration giving a half-maximal response (EC50) stood at 2.8 nM and the Emax worked out at 98 ± 8.7%. In addition, on hCB1R [5], the 50% effective concentration (EC50) is more than 10000 nM; the Emax was found to be 17 ± 2.7%; the “βarrestin2 recruitment to CB1R, activity in words” value is listed as “Inactive at βarrestin2”. The molecule further came in with a Ki at hCB1R [2] of 10 nM. In addition, the “CB1R versus CB2R selectivity, receptor affinity” value at hCB1R [2] (CB1R vs CB2R [^3H]CP55,940 binding) was “greater affinity at CB1R relative to CB2R”. In addition, the “CB1R [^3H]CP55,940 Emin” value on hCB1R [2] (setting [8]) was 5.3 ± 3.0%. On hCB2R [6], this molecule gave a 50% effective concentration (EC50) of 580 nM and a maximal response (Emax) of 120 ± 25%. Further, on hCB2R [7], the “CB2R bias between cAMP inhibition and βarrestin2 recruitment, ∆∆LogR (cAMP—βarr2), in words” value was “obligate cAMP-biased ligands”.
Take `CC(C)C(NC(=O)c1nn(Cc2cccc(F)c2)c2ccccc12)C(N)=O` (stereo not shown) [meta-AB-FUBINACA]: on hCB2R [3], the EC50 is 280 nM; the Emax came out at 130 ± 3.7%; the “βarrestin2 recruitment to CB2R” value was “not different with regard to potency relative to the reference agonist CP55,940, and produced supramaximal EMax responses”. In addition, at hCB2R [1], the “Affinity for CB2R compared with CP55,940, in words” value was “significantly greater affinity”; the Ki was 0.63 nM; the “CB2R [^3H]CP55,940 Emin” value was determined as 89 ± 6.3 %. Moreover, on hCB1R [4], the half-maximal effective concentration (EC50) worked out at 5.7 nM and the Emax was determined as 91 ± 12%. For the same molecule, on hCB1R [5] (CB1R vs CB2R), the “CB1R versus CB2R selectivity, βarrestin2 recruitment” value was “minimally active at CB1R but agonists at CB2R”. Moreover, at hCB1R [5], the EC50 is more than 10000 nM; the maximal response (Emax) amounted to 22 ± 6.9%; the “βarrestin2 recruitment to CB1R, activity in words” value is given as “Inactive at βarrestin2”. In addition, on hCB1R [2], the Ki stood at 16 nM. Besides, at hCB1R [2] (setting [8]), the “CB1R [^3H]CP55,940 Emin” value is 30 ± 2.9 %. On hCB2R [6], this molecule had an EC50 of 5.4 nM and an Emax of 86 ± 13%. In addition, the “CB2R bias between cAMP inhibition and βarrestin2 recruitment, ∆∆LogR (cAMP—βarr2), in words” value on hCB2R [7] is recorded as “did not display a bias”.
Turning to `CCCCCc1cc(O)c2c(c1)OC(C)(C)[C@@H]1CCC(C)=C[C@@H]21` [∆^9-THC, ∆^9-tetrahydrocannabinol, reference compound], at hCB2R [3], the maximal response (Emax) came to 58 ± 1.1% and the “βarrestin2 recruitment to CB2R” value was “significantly lower efficacy, but similar potency”. The “CB2R [^3H]CP55,940 Emin” value at hCB2R [1] was determined as 65 ± 7.6 %. This molecule came in with an Emax at hCB2R [6] of 48 ± 3.8%. Also, the “CB2R-dependent inhibition of FSK-stimulated cAMP, activity in words” value at hCB2R [6] (relative to CP55,940) is given as “significantly lower efficacy”. Further, in the experiment on male C57Bl/6 mice, the “EPM open arm entries” value is reported as “increased open arm entry”, the “EPM time in the open arms” value is “greater amount of time spent in the open arms” and the “EPM total arm entries” value is “did not change total arm entries”. The “CB2R bias between cAMP inhibition and βarrestin2 recruitment, ∆∆LogR (cAMP—βarr2), in words” value on hCB2R [7] is given as “did not display a bias”.
